Consider 5 compounds from US20230393140A1, “BINDING ASSAYS INVOLVING A PLURALITY OF SYNTHETIC COMPOUNDS, TARGETS, AND COUNTER TARGETS” (SRI International, priority 2020, published 2023).

SMILES strings stand for the structures. Numbered stars: 1 amine (or outer) side, 2 acyl side, 3 side chain; on linkers, the order of the positions; unused ones are H or OH. Square brackets hold non-standard residues; d marks the D form. Peptide text beside a SMILES is read from it. * marks the point of attachment. 5FAM = O=C1OC2(c3ccc(O)cc3Oc3cc(O)ccc32)c2ccc(C(=O)*)cc21; NHCH2C6H4(4-CH2CONH2) = NC(=O)Cc1ccc(CN*)cc1; X1 = O=C(Cc1ccc(CN[*:1])cc1)[*:2]

This experiment addresses T1, ASGPR (Homo sapiens, UniProt P07306).
T1 construct: purchased R&D Systems, Inc. 4394-AS
T1 sequence (P07306 1-291): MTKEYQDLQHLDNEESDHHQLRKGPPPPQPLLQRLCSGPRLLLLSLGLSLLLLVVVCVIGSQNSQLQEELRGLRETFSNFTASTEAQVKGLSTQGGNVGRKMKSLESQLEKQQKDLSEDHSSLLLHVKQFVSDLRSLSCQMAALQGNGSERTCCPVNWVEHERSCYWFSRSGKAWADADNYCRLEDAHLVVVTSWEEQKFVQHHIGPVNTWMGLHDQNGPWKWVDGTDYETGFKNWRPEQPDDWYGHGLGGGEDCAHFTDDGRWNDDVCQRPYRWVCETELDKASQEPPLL
Kind of experiment: MST binding affinity of resynthesized NNP hits to ASGPR. The settings on record: read-out: KD (nM) [95% conf. int]; MST; NNP1 library hit; target ASGPR; one-site binding model. The procedure:
Hit binding affinity to various targets were determined using Microscale Thermophoresis (MST). MST experiments were performed on a Monolith NT.115pico (NanoTemper Technologies GmbH, Munich, Germany). Measurements were performed at room temperature, in triplicate with incubation periods of 15, 30 and 45 minutes. […] Targets were labeled using Nanotemper Monolith 2nd Generation Protein Labeling Kits. RED-MALEIMIDE (Maleimide-647-dye) labeling kit was used for K-Ras and RED-NHS (NHS-647-dye) labeling kit was used for IL-6, IL-6R, TNFα and ASGPR. The buffer for the ASGPR contained 20 mM HEPES pH 7.4, 150 mM NaCl, 10 mM MgCl2, 2 mM CaCl2, 0.05% Pluronic F-127, and 1 mM DTT; for IL-6 contained 20 mM HEPES pH 7.4, 150 mM KCl, 10 mM MgCl2, and 0.1% Pluronic F-127; for the soluble IL-6 receptor 20 mM HEPES pH 7.4, 150 mM NaCl, 10 mM MgCl2, and 0.05% Tween-20; for K-Ras 20 mM HEPES pH 7.4, 150 mM NaCl, 10 mM MgCl2, 0.05% Tween-20 and 1 mM DTT; for TNFα 10 mM HEPES pH 7.4, 150 mM NaCl, 10 mM MgCl2, 0.05% Polysorbate-20. Triplicate data was analyzed using MO.AffinityAnalysis software (NanoTemper Technologies GmbH).
As usually defined, the Kd is a measure of binding affinity in units of concentration. For the compound `CC(C)C[C@H](NC(=O)[C@@H](CCCNC(=N)N)NC(=O)[C@@H](CCCCN)NC(=O)[C@@H](CCC(=O)O)NC(=O)[C@@H](Cc1ccccc1)NC(=O)Cc1ccc(CNC(=O)[C@H](Cc2ccccc2)NC(=O)[C@@H](CO)NC(=O)[C@@H](CCC(=O)O)NC(=O)[C@H]2CCCN2C(=O)[C@@H](CC(C)C)NC(=O)c2ccc3c(c2)C(=O)OC32c3ccc(O)cc3Oc3cc(O)ccc32)cc1)C(=O)NCc1ccc(CC(=O)NCC(=O)N2CCC[C@@H]2C(=O)N[C@H](CCCNC(=N)N)C(=O)N[C@H](CO)C(=O)N[C@@H](Cc2ccccc2)C(=O)NCc2ccc(CC(=O)N3CCC[C@@H]3C(=O)N[C@H](CCCCN)C(=O)N[C@H](Cc3ccc(O)cc3)C(=O)N[C@H](CCCNC(=N)N)C(=O)N[C@@H](Cc3ccccc3)C(=O)NCc3ccc(CC(=O)N[C@H](CCCNC(=N)N)C(=O)N[C@H](Cc4ccccc4)C(=O)N4CCC[C@@H]4C(=O)N[C@@H](C(=O)NCC(=O)NCc4ccc(CC(=O)N[C@H](CC(C)C)C(=O)N5CCC[C@@H]5C(=O)N[C@H](CCCNC(=N)N)C(=O)N[C@@H](C(=O)NCC(=O)NCc5ccc(CC(N)=O)cc5)[C@H](C)O)cc4)C(C)C)cc3)cc2)cc1` [ASGPR-9-3] (5FAM-[dL][dP][dE][dS]F[X1][dF][dE][dK][dR]L[X1]G[dP][dR][dS]F[X1][dP][dK][dY][dR]F[X1][dR][dF][dP][dV]G[X1][dL][dP][dR][dT]G-{NHCH2C6H4(4-CH2CONH2)}), the Kd is 330 nM.

For the compound `CC(C)C[C@H](NC(=O)[C@@H](CCCNC(=N)N)NC(=O)[C@@H](CCCCN)NC(=O)[C@@H](CCC(=O)O)NC(=O)[C@@H](Cc1ccccc1)NC(=O)Cc1ccc(CNC(=O)[C@H](Cc2ccccc2)NC(=O)[C@@H](CO)NC(=O)[C@@H](CCC(=O)O)NC(=O)[C@H]2CCCN2C(=O)[C@@H](CC(C)C)NC(=O)c2ccc3c(c2)C(=O)OC32c3ccc(O)cc3Oc3cc(O)ccc32)cc1)C(=O)NCc1ccc(CC(=O)N[C@H](Cc2c[nH]cn2)C(=O)N[C@H](CO)C(=O)N2CCC[C@@H]2C(=O)N[C@H](CCCNC(=N)N)C(=O)N[C@H](C(=O)NCc2ccc(CC(=O)N3CCC[C@@H]3C(=O)N[C@H](CCCCN)C(=O)N[C@H](Cc3ccc(O)cc3)C(=O)N[C@H](CCCNC(=N)N)C(=O)N[C@@H](Cc3ccccc3)C(=O)NCc3ccc(CC(=O)N[C@H](CCCNC(=N)N)C(=O)N[C@H](Cc4ccccc4)C(=O)N4CCC[C@@H]4C(=O)N[C@@H](C(=O)NCC(=O)NCc4ccc(CC(=O)N[C@H](CC(C)C)C(=O)N5CCC[C@@H]5C(=O)N[C@H](CCCNC(=N)N)C(=O)N[C@@H](C(=O)NCC(=O)NCc5ccc(CC(N)=O)cc5)[C@H](C)O)cc4)C(C)C)cc3)cc2)C(C)C)cc1` [ASGPR-9-7] (5FAM-[dL][dP][dE][dS]F[X1][dF][dE][dK][dR]L[X1][dH][dS][dP][dR]V[X1][dP][dK][dY][dR]F[X1][dR][dF][dP][dV]G[X1][dL][dP][dR][dT]G-{NHCH2C6H4(4-CH2CONH2)}), the Kd is 150 nM.

In the case of `CC(C)C[C@H](NC(=O)[C@@H](Cc1c[nH]cn1)NC(=O)[C@@H](CC(C)C)NC(=O)[C@H]1CCCN1C(=O)[C@@H](CC(N)=O)NC(=O)Cc1ccc(CNC(=O)[C@H](Cc2ccccc2)NC(=O)[C@@H](Cc2c[nH]cn2)NC(=O)[C@@H](CCCNC(=N)N)NC(=O)[C@@H](CC(N)=O)NC(=O)[C@@H](Cc2ccc(O)cc2)NC(=O)Cc2ccc(CNC(=O)[C@H](CC(C)C)NC(=O)[C@@H](CCCNC(=N)N)NC(=O)[C@@H](CCCCN)NC(=O)[C@@H](CCC(=O)O)NC(=O)[C@@H](Cc3ccccc3)NC(=O)Cc3ccc(CNC(=O)[C@H](Cc4ccccc4)NC(=O)[C@@H](CO)NC(=O)[C@@H](CCC(=O)O)NC(=O)[C@H]4CCCN4C(=O)[C@@H](CC(C)C)NC(=O)c4ccc5c(c4)C(=O)OC54c5ccc(O)cc5Oc5cc(O)ccc54)cc3)cc2)cc1)C(=O)NCc1ccc(CC(=O)N[C@H](CCCNC(=N)N)C(=O)N[C@H](Cc2ccccc2)C(=O)N2CCC[C@@H]2C(=O)N[C@@H](C(=O)NCC(=O)NCc2ccc(CC(=O)N[C@H](CC(C)C)C(=O)N3CCC[C@@H]3C(=O)N[C@H](CCCNC(=N)N)C(=O)N[C@@H](C(=O)NCC(=O)NCc3ccc(CC(N)=O)cc3)[C@H](C)O)cc2)C(C)C)cc1` [ASGPR-9-10] (5FAM-[dL][dP][dE][dS]F[X1][dF][dE][dK][dR]L[X1][dY][dN][dR][dH]F[X1][dN][dP][dL][dH]L[X1][dR][dF][dP][dV]G[X1][dL][dP][dR][dT]G-{NHCH2C6H4(4-CH2CONH2)}), the Kd is 97 nM.

In the case of `CC(C)C[C@H](NC(=O)[C@@H](Cc1c[nH]c2ccccc12)NC(=O)[C@@H](CCC(=O)O)NC(=O)[C@@H](CO)NC(=O)[C@@H](CCCNC(=N)N)NC(=O)Cc1ccc(CNC(=O)[C@H](Cc2ccccc2)NC(=O)[C@@H](Cc2c[nH]cn2)NC(=O)[C@@H](CCCNC(=N)N)NC(=O)[C@@H](CC(N)=O)NC(=O)[C@@H](Cc2ccc(O)cc2)NC(=O)Cc2ccc(CNC(=O)[C@H](CC(C)C)NC(=O)[C@@H](CCCNC(=N)N)NC(=O)[C@@H](CCCCN)NC(=O)[C@@H](CCC(=O)O)NC(=O)[C@@H](Cc3ccccc3)NC(=O)Cc3ccc(CNC(=O)[C@H](Cc4ccccc4)NC(=O)[C@@H](CO)NC(=O)[C@@H](CCC(=O)O)NC(=O)[C@H]4CCCN4C(=O)[C@@H](CC(C)C)NC(=O)c4ccc5c(c4)C(=O)OC54c5ccc(O)cc5Oc5cc(O)ccc54)cc3)cc2)cc1)C(=O)NCc1ccc(CC(=O)N[C@H](CCCNC(=N)N)C(=O)N[C@H](Cc2ccccc2)C(=O)N2CCC[C@@H]2C(=O)N[C@@H](C(=O)NCC(=O)NCc2ccc(CC(=O)N[C@H](CC(C)C)C(=O)N3CCC[C@@H]3C(=O)N[C@H](CCCNC(=N)N)C(=O)N[C@@H](C(=O)NCC(=O)NCc3ccc(CC(N)=O)cc3)[C@H](C)O)cc2)C(C)C)cc1` [ASGPR-9-11] (5FAM-[dL][dP][dE][dS]F[X1][dF][dE][dK][dR]L[X1][dY][dN][dR][dH]F[X1][dR][dS][dE][dW]L[X1][dR][dF][dP][dV]G[X1][dL][dP][dR][dT]G-{NHCH2C6H4(4-CH2CONH2)}), the Kd stood at 0.22 nM.

In the case of `CC(C)C[C@H](NC(=O)[C@@H](CCCNC(=N)N)NC(=O)[C@@H](CCCCN)NC(=O)[C@@H](CCC(=O)O)NC(=O)[C@@H](Cc1ccccc1)NC(=O)Cc1ccc(CNC(=O)[C@H](Cc2ccccc2)NC(=O)[C@@H](CO)NC(=O)[C@@H](CCC(=O)O)NC(=O)[C@H]2CCCN2C(=O)[C@@H](CC(C)C)NC(=O)c2ccc3c(c2)C(=O)OC32c3ccc(O)cc3Oc3cc(O)ccc32)cc1)C(=O)NCc1ccc(CC(=O)N[C@H](Cc2ccc(O)cc2)C(=O)N[C@H](CC(N)=O)C(=O)N[C@H](CCCNC(=N)N)C(=O)N[C@H](Cc2c[nH]cn2)C(=O)N[C@@H](Cc2ccccc2)C(=O)NCc2ccc(CC(=O)N[C@H](Cc3ccc(O)cc3)C(=O)N[C@@H](C(=O)N3CCC[C@@H]3C(=O)N[C@H](CCCNC(=N)N)C(=O)N[C@@H](C)C(=O)NCc3ccc(CC(=O)N[C@H](CCCNC(=N)N)C(=O)N[C@H](Cc4ccccc4)C(=O)N4CCC[C@@H]4C(=O)N[C@@H](C(=O)NCC(=O)NCc4ccc(CC(=O)N[C@H](CC(C)C)C(=O)N5CCC[C@@H]5C(=O)N[C@H](CCCNC(=N)N)C(=O)N[C@@H](C(=O)NCC(=O)NCc5ccc(CC(N)=O)cc5)[C@H](C)O)cc4)C(C)C)cc3)[C@H](C)O)cc2)cc1` [ASGPR-9-12] (5FAM-[dL][dP][dE][dS]F[X1][dF][dE][dK][dR]L[X1][dY][dN][dR][dH]F[X1][dY][dT][dP][dR]A[X1][dR][dF][dP][dV]G[X1][dL][dP][dR][dT]G-{NHCH2C6H4(4-CH2CONH2)}), the Kd is 6 nM.
